Patent US10619138B2, “Herbicide-resistant hydroxyphenylpyruvate dioxygenases” (BASF SE, priority 2013, dated 2020)
Where “and” joins values, the source holds several entries; their conditions need not be identical. Equal values may be shown once.

Tests used:
Assay in all cases: In vitro HPPD activity assay, tolerance index
Conditions in all cases: normalized on Arabidopsis wild-type HPPD
[1] = system: Acidobacterium HPPD (SEQ ID NO: 30); type: biochemical, Acidobacterium capsulatum
Description: (§1) The activity assay for HPPD is based on the analysis of homogentisic acid by reversed phase HPLC.
(§2) The assay mixture can contain 150 mM potassium phosphate buffer pH 7.0, 50 mM L-ascorbic acid, 100 μM Catalase (Sigma-Aldrich), 1 μM FeSO4 and 0.2 units of purified HPPD enzyme in a total volume of 505 μl. 1 unit is defined as the amount of enzyme that is required to produce 1 nmol of HGA per minute at 20° C.
(§3) The reaction is allowed to proceed for 45 min at room temperature. The reaction is stopped by the addition of 50 μl of 4.5 M phosphoric acid. The sample is filtered using a […] pore size PVDF filtration device.
(§4) 5 μl of the cleared sample is analyzed on an UPLC HSS T3 column (particle size 1.8 μm, dimensions 2.1×50 mm; Waters) by isocratic elution using 90% 20 mM NaH2PO4 pH 2.2, 10% methanol (v/v).
(§5) HGA is detected electrochemically at 750 mV (mode: DC; polarity: positive) and quantified by integrating peak areas (Empower software; Waters).
(§6) Inhibitors are dissolved in DMSO (dimethylsulfoxide) to a concentration of 0.5 mM. From this stock solution serial five-fold dilutions are prepared in DMSO, which are used in the assay. The respective inhibitor solution accounts for 1% of the assay volume. Thus, final inhibitor concentrations range from 5 μM to 320 pM, respectively. Activities are normalized by setting the uninhibited enzyme activity to 100%. IC50 values are calculated using non-linear regression.
(§7) Using methods which are described in the above examples or well known in the art, purified, recombinant wildtype HPPD enzymes are characterized with respect to their kinetic properties and sensitivity towards HPPD inhibiting herbicides. Apparent michaelis constants (Km) and maximal reaction velocities (Vmax) are calculated by non-linear regression with the software GraphPad Prism 5 (GraphPad Software, La Jolla, USA) using a substrate inhibition model. […] Weighted means (by standard error) of Km and IC50 values are calculated from at least three independent experiments. The Cheng-Prusoff equation for competitive inhibition (Cheng, Y. C.; Prusoff, W. H. Biochem Pharmacol 1973, 22, 3099-3108) is used to calculate dissociation constants (Ki).
(§8) Field performance of the HPPD enzyme, which is used as a herbicide tolerance trait may depend not only on its lack of sensitivity towards HPPD inhibiting herbicides but also on its activity. To assess the potential performance of a herbicide tolerance trait a tolerance index (TI) is calculated using the following formula: […]
(§9) Easy comparison and ranking of each trait is enabled by normalizing tolerance indexes on Arabidopsis wild-type HPPD.

[2] = system: Belliella HPPD (SEQ ID NO: 12); type: biochemical, Belliella baltica
Description: as §1, §2, §3, §4, §5, §6, §7, §8, §9

[3] = system: Geodermatophilus HPPD (SEQ ID NO: 32); type: biochemical, Geodermatophilus obscurus
Description: as §1, §2, §3, §4, §5, §6, §7, §8, §9

[4] = system: Herpetosiphon HPPD (SEQ ID NO: 26); type: biochemical, Herpetosiphon aurantiacus
Description: as §1, §2, §3, §4, §5, §6, §7, §8, §9

[5] = system: Microscilla HPPD (SEQ ID NO: 20); type: biochemical, Microscilla marina
Description: as §1, §2, §3, §4, §5, §6, §7, §8, §9

[6] = system: Nitritalea HPPD (SEQ ID NO: 14); type: biochemical, Nitritalea halalkaliphila
Description: as §1, §2, §3, §4, §5, §6, §7, §8, §9

[7] = system: Pontibacter HPPD (SEQ ID NO: 16); type: biochemical, Pontibacter sp.
Description: as §1, §2, §3, §4, §5, §6, §7, §8, §9

[8] = system: Scenedesmus HPPD (SEQ ID NO: 4); type: biochemical, Scenedesmus obliquus
Description: as §1, §2, §3, §4, §5, §6, §7, §8, §9

[9] = system: Algoriphagus HPPD (SEQ ID NO: 22); type: biochemical, Algoriphagus machipongonensis
Description: as §1, §2, §3, §4, §5, §6, §7, §8, §9

CS(=O)(=O)c1ccc(C(=O)C2C(=O)CCCC2=O)c([N+](=O)[O-])c1 [Inhibitor 2, 2-(4-methylsulfonyl-2-nitro-benzoyl)cyclohexane-1,3-dione]
TI (normalized tolerance index) [1]: 0.6
TI (normalized tolerance index) [2]: 0.1
TI (normalized tolerance index) [3]: 0.7
TI (normalized tolerance index) [4]: 0.4
TI (normalized tolerance index) [5]: 0.2
TI (normalized tolerance index) [6]: 0
TI (normalized tolerance index) [7]: 0.1
TI (normalized tolerance index) [8]: 0.1

CN(c1c(Cl)ccc(C2=C(O)c3ncccc3C(C)(C)S2(=O)=O)c1Cl)S(C)(=O)=O [Inhibitor 4, N-[2,6-dichloro-3-(8-hydroxy-5,5-dimethyl-6,6-dioxo-thiopyrano[4,3-b]pyridin-7-yl)phenyl]-N-methyl-methanesulfonamide]
TI (normalized tolerance index) [1]: 64 and 64.3
TI (normalized tolerance index) [9]: 132.5
TI (normalized tolerance index) [5]: 112.0
TI (normalized tolerance index) [7]: 16.4

CSc1c(Cl)cc(F)c(C(=O)Nc2nnnn2C)c1Cl [Inhibitor 11, 2,4-dichloro-6-fluoro-3-methylsulfanyl-N-(1-methyltetrazol-5-yl)benzamide]
TI (normalized tolerance index) [1]: 0.1
TI (normalized tolerance index) [2]: 0
TI (normalized tolerance index) [3]: 0.2
TI (normalized tolerance index) [4]: 0.2
TI (normalized tolerance index) [5]: 0.1
TI (normalized tolerance index) [6]: 0
TI (normalized tolerance index) [7]: 0
TI (normalized tolerance index) [8]: 0.3
